Tests used:
Experiment in all cases: relative viability (nuclei count vs DMSO), 5 days (fraction); higher = more cells survive
Idelalisib + Olaparib = compound: CC[C@H](Nc1ncnc2[nH]cnc12)c1nc2cccc(F)c2c(=O)n1-c1ccccc1 [Idelalisib] + O=C(c1cc(Cc2n[nH]c(=O)c3ccccc23)ccc1F)N1CCN(C(=O)C2CC2)CC1 [Olaparib] (partner 8 µM)
Procedure, shortened: (§1)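 Medians of duplicate plates are given as relative viability. That measure is the nuclei count in treated wells divided by the count in vehicle wells. Counts were taken on 4× images of lung cancer cell lines in 1536-well plates, 5 days after pin-tool dosing the day after seeding with one drug alone or a fixed anchor-drug dose plus five library-drug doses (not always all listed) in √10 steps.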

Idelalisib + OSI-027 = compound: CC[C@H](Nc1ncnc2[nH]cnc12)c1nc2cccc(F)c2c(=O)n1-c1ccccc1 [Idelalisib] + COc1cccc2cc(-c3nc([C@H]4CC[C@H](C(=O)O)CC4)n4ncnc(N)c34)[nH]c12 [OSI-027] (partner 0.5 µM)
Procedure, shortened: as §1

Idelalisib + Pemetrexed = compound: CC[C@H](Nc1ncnc2[nH]cnc12)c1nc2cccc(F)c2c(=O)n1-c1ccccc1 [Idelalisib] + Nc1nc2[nH]cc(CCc3ccc(C(=O)N[C@@H](CCC(=O)O)C(=O)O)cc3)c2c(=O)[nH]1 [Pemetrexed] (partner 0.2 µM)
Procedure, shortened: as §1

Idelalisib + Alpelisib = compound: CC[C@H](Nc1ncnc2[nH]cnc12)c1nc2cccc(F)c2c(=O)n1-c1ccccc1 [Idelalisib] + Cc1nc(NC(=O)N2CCC[C@H]2C(N)=O)sc1-c1ccnc(C(C)(C)C(F)(F)F)c1 [Alpelisib] (partner 2 µM)
Procedure, shortened: as §1

| Cell Line | relative viability (Idelalisib + Olaparib; first compound 0.04 µM) | relative viability (Idelalisib + Olaparib; first compound 0.1265 µM) | relative viability (Idelalisib + Olaparib; first compound 0.4 µM) | relative viability (Idelalisib + Olaparib; first compound 1.265 µM) | relative viability (Idelalisib + Olaparib; first compound 4 µM) | relative viability (Idelalisib + OSI-027; first compound 0.04 µM) | relative viability (Idelalisib + OSI-027; first compound 0.1265 µM) | relative viability (Idelalisib + OSI-027; first compound 0.4 µM) | relative viability (Idelalisib + OSI-027; first compound 1.265 µM) | relative viability (Idelalisib + OSI-027; first compound 4 µM) | relative viability (Idelalisib + Pemetrexed; first compound 0.04 µM) | relative viability (Idelalisib + Pemetrexed; first compound 0.1265 µM) | relative viability (Idelalisib + Pemetrexed; first compound 0.4 µM) | relative viability (Idelalisib + Pemetrexed; first compound 1.265 µM) | relative viability (Idelalisib + Pemetrexed; first compound 4 µM) | relative viability (Idelalisib + Alpelisib; first compound 0.04 µM) | relative viability (Idelalisib + Alpelisib; first compound 0.1265 µM) | relative viability (Idelalisib + Alpelisib; first compound 0.4 µM) | relative viability (Idelalisib + Alpelisib; first compound 1.265 µM) | relative viability (Idelalisib + Alpelisib; first compound 4 µM) |
| --- | --- | --- | --- | --- | --- | --- | --- | --- | --- | --- | --- | --- | --- | --- | --- | --- | --- | --- | --- | --- |
| SW 900 | 0.904 | 0.842 | 0.729 | 0.93 | 0.665 | 0.553 | 0.642 | 0.376 | 0.744 | 0.373 | 0.493 | 0.488 | 0.476 | 0.509 | 0.406 | – | – | – | – | – |
| PC-3 [JPC-3] | 1.09 | 1.23 | 1.08 | 1.13 | 0.953 | 0.712 | 0.747 | 0.639 | 0.694 | 0.571 | 1.4 | 1.16 | 1.11 | 1.09 | 1.08 | 1.11 | 1.02 | 0.981 | 0.963 | 0.855 |
| NCI-H1703 | 0.459 | 0.436 | 0.365 | 0.388 | 0.237 | – | – | – | – | – | – | – | – | – | – | 0.37 | 0.304 | 0.273 | 0.272 | 0.207 |
| EPLC-272H | 1.01 | 0.916 | 0.686 | 0.637 | 0.619 | 0.304 | 0.296 | 0.271 | 0.294 | 0.274 | 0.303 | 0.386 | 0.317 | 0.23 | 0.347 | 0.617 | 0.9 | 0.767 | 0.74 | 0.669 |
| NCI-H1792 | 0.244 | 0.369 | 0.267 | 0.409 | 0.298 | 0.466 | 0.778 | 0.598 | 0.836 | 0.51 | 0.707 | 1.09 | 0.45 | 0.823 | 0.631 | 0.315 | 0.662 | 0.665 | 0.577 | 0.581 |
| NCI-H2085 | 0.642 | 0.743 | 0.767 | 0.741 | 0.677 | 0.738 | 1.01 | 0.521 | 0.725 | 0.325 | 0.909 | 0.852 | 0.789 | 0.746 | 0.528 | 1.01 | 0.955 | 0.811 | 0.874 | 0.514 |
| LK-2 | 0.874 | 0.631 | – | 0.983 | 0.609 | 0.219 | 0.223 | – | 0.198 | 0.183 | 0.344 | 0.14 | – | 0.324 | 0.404 | 1.16 | 1.17 | – | 1.09 | 1.11 |
| NCI-H1395 | 0.456 | 0.455 | 0.445 | 0.43 | 0.41 | 0.713 | 0.639 | 0.621 | 0.561 | 0.454 | 0.915 | 0.859 | 0.804 | 0.83 | 0.748 | 1.17 | 0.987 | 0.974 | 1.15 | 0.694 |
| ABC-1 | 0.947 | 0.913 | 0.78 | 0.97 | 0.68 | 0.491 | 0.495 | 0.43 | 0.577 | 0.409 | – | – | – | – | – | 0.956 | 1.22 | 1.08 | 1.13 | 0.807 |
| RERF-LC-KJ | 0.873 | 0.941 | 0.864 | 0.892 | 0.814 | 0.632 | 0.563 | 0.436 | 0.502 | 0.516 | 0.46 | 0.44 | 0.46 | 0.491 | 0.448 | 0.735 | 0.71 | 0.785 | 0.77 | 0.645 |
| LU99A | 0.251 | 0.25 | 0.274 | 0.206 | 0.241 | 0.302 | 0.322 | 0.242 | 0.298 | 0.305 | 0.174 | 0.153 | 0.189 | 0.149 | 0.19 | 0.665 | 0.479 | 0.36 | 0.554 | 0.45 |
| NCI-H650 | 0.414 | 0.441 | 0.362 | 0.334 | 0.37 | 0.491 | 0.574 | 0.446 | 0.527 | 0.506 | 0.983 | 0.995 | 0.923 | 0.77 | 0.92 | 1.27 | 1.01 | 0.961 | 1.46 | 0.962 |
| NCI-H2347 | 0.591 | 0.659 | 0.528 | 0.644 | 0.464 | 0.379 | 0.332 | 0.367 | 0.348 | 0.257 | 0.436 | 0.423 | 0.436 | 0.452 | 0.402 | 0.964 | 1 | 0.989 | 1.07 | 0.881 |
| HARA | 0.738 | 0.998 | – | 0.758 | 0.792 | 0.618 | 0.466 | 0.296 | 0.374 | 0.441 | 0.24 | 0.243 | – | 0.222 | 0.247 | 1.03 | 0.843 | 0.855 | 0.754 | 0.751 |
| NCI-H2228 | 0.911 | 0.985 | 0.589 | 0.871 | 0.538 | 0.687 | 0.725 | 0.453 | 0.637 | 0.597 | 0.369 | 0.323 | 0.407 | 0.312 | 0.325 | 1.07 | 0.739 | 0.774 | 0.672 | 0.631 |
| EKVX | 0.756 | 0.915 | 0.755 | 0.884 | 0.74 | 0.705 | 0.709 | 0.527 | 0.557 | 0.586 | 0.407 | 0.387 | 0.377 | 0.386 | 0.395 | 0.835 | 0.896 | 0.728 | 0.625 | 0.53 |
| HCC-827 | 0.667 | 0.613 | 0.612 | 0.571 | 0.491 | 0.928 | 0.738 | 0.759 | 0.698 | 0.659 | 0.267 | 0.218 | 0.232 | 0.249 | 0.25 | 0.977 | 0.968 | 0.92 | 0.894 | 0.506 |

From the supplement of paper PMC10307832
